For one assay, the target named is T1, PPARγ (Mus musculus, UniProt P37238).
T1 construct: made in house; host or cells: receptor: reticulocyte lysate in vitro translation (Promega TNT); GST-PGC-1: E. coli
T1 sequence (P37238 1-505): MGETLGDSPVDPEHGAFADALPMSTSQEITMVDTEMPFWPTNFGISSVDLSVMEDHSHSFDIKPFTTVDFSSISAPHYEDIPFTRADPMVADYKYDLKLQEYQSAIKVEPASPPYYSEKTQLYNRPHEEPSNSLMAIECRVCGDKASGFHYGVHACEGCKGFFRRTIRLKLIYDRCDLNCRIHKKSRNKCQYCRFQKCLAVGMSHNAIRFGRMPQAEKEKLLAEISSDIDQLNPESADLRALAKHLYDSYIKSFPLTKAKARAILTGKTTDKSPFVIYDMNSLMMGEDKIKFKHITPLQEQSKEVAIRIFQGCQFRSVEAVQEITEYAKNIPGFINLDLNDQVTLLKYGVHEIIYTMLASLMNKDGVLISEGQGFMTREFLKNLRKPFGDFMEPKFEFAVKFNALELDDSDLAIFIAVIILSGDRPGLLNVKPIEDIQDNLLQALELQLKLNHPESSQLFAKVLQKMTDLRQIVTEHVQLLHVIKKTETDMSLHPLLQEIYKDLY
T1 sequence (O70343 36-797 partner limits assumed): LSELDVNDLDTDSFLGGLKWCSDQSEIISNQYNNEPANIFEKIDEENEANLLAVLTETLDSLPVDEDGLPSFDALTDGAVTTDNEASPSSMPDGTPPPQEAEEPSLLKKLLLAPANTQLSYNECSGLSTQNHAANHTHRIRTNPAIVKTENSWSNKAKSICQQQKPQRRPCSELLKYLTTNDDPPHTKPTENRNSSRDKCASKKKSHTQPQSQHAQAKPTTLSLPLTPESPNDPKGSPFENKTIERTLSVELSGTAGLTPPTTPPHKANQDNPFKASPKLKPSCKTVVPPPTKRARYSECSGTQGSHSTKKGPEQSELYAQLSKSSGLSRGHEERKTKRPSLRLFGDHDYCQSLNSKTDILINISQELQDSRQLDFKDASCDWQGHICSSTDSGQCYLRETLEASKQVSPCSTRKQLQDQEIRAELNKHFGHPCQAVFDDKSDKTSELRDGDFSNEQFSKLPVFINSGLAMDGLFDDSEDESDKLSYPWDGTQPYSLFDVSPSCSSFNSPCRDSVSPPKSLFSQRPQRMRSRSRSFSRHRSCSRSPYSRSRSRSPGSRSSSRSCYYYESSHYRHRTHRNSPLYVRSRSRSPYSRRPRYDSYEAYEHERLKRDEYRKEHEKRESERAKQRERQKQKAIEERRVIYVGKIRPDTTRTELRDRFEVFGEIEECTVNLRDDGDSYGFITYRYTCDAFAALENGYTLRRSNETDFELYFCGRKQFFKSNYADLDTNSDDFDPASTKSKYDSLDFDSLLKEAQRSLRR
Kind of assay: In vitro binding of GST-PGC-1 to in vitro-translated nuclear receptor. Conditions: GST-PGC-1 (aa 36-797) on beads.

Assay [1] has as its target T2, retinoid-X receptor (RXRα) (Homo sapiens, UniProt P19793).
T2 construct: made in house; host or cells: receptor: reticulocyte lysate in vitro translation (Promega TNT); GST-PGC-1: E. coli
T2 sequence (P19793 1-462): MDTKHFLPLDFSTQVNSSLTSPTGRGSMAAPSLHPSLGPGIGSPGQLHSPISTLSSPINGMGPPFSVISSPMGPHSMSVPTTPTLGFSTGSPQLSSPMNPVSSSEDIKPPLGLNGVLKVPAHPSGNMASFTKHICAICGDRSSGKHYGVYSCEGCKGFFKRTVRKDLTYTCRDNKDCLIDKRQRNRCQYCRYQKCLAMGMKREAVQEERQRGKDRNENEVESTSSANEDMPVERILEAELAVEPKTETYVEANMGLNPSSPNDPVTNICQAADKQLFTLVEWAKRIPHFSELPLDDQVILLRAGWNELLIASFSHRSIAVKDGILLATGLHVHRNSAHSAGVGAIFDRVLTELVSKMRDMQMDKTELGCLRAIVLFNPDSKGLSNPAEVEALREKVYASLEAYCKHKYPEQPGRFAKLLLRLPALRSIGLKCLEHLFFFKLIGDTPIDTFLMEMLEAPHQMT
Described as above. Conditions: with or without ligand addition. The protocol:
The assays were carried out as follows.

A further assay concerns 3T3-F442A preadipocytes. Kind of assay: Northern analysis of 3T3-F442A cells with retroviral ectopic expression of PGC-1. In kind it is cell-based. From the text:
To examine directly the ability of PGC-1 to regulate the genes of adaptive thermogenesis, retroviral vectors have been used to express this protein in white fat precursor cells, and 3T3-F442A preadipocytes were then stimulated to differentiate. Briefly, the PGC-1 viral expression vector (pBabe-PGC-1) was constructed by ligating the BamHI-Xhol fragment from pBluescript-PGC-1 plasmid into BamHI/Sall sites of pBabe-puro. Following drug selection, virally infected 3T3F442A-PGC-1 and […] cells lines were grown to confluence in DMEM with 10% BCS. Differentiation of these cells was initiated by culturing them in DMEM insulin. Cells were refed every 2 days with this medium. Specific cells were grown in DMEM with 10% CCS to confluence. […] After these treatments, total RNA was isolated and analyzed.
To induce UCP-1 expression, 1 μM 8-bromo-cAMP and […] 9-cis-retinoic acid were added to the medium, and total RNA was extracted from the cells 6 hr later. […] The mitochondrial respiratory enzyme cytochrome c-oxidase subunits COX II and IV are encoded in the mitochondrial and nuclear genome, respectively. Both of these mRNAs increase 2- to 3-fold in the cells ectopically expressing PGC-1. Expression of aP2, a white and brown fat cell gene not linked to thermogenesis, and 36B4, a ribosomal protein are shown as a loading control.

The test system of a further assay is 3T3-F442A cells. Kind of assay: Southern blot analysis of mitochondrial DNA in 3T3-F442A cells expressing PGC-1. Conditions: cells expressing PGC-1, COX-II cDNA probe. The format is cell-based. Here is the method:
Changes in the cellular content of mitochondrial DNA have been used as a simple biochemical assay for mitochondrial proliferation (Martin et al. (1995) Biochem. J. 308:749-752; Klingenspor et al. (1996) Biochem. J. 316:607-613). To address this possibility, Southern blot analysis of mitochondrial DNA was performed. 3T3-F442A Southern blots were carried out by isolating and processing genomic DNA as described in Maniatis et al. (1989) Molecular Cloning: A Laboratory Manual, 2nd Ed. (Cold Spring Harbor, N.Y.: Cold Spring Harbor Laboratory Press)). 3T3-F442A cells were differentiated as described above. Total cellular DNA was isolated and was digested with NCo I. Ten micrograms of DNA were electrophoresed, and the Southern blot was hybridized using COX-II cDNA as a probe for mitrochondrial DNA.
The same blots were also probed with cDNA for 36B4, a ribosomal protein encoded in the nucleus. The blot was then stripped and hybridized with the nuclear gene […].

The values that follow come from patent US6525178B2, “PGC-1, a novel brown fat PPARgamma coactivator” (Dana-Farber Cancer Institute, priority 1997, dated 2003).

Procedure for PPARγ: These fusion proteins were expressed, and purified from E. coli on beads containing approximately 1 μg of protein (either GST, or alone, or fused to PGC-1), 30 μl was resuspended i the binding buffer (20 mM HEPES [pH 7.7], 75 mM KCl, 0.1 mM EDTA, 2.5 mM MgCl2, 0.05% NP40,2 mM DTT, 10% glycerol).
The assays were carried out as follows. […] After electrophoresis, fixation, and enhancement, the radiolabeled proteins were visualized by autoradiography.

For the substance “PGC-1: mouse PPARγ coactivator 1 protein, SEQ ID NO:2; used as GST fusion or expressed from retroviral vector”, the “binding of PGC-1 to PPARγ” value with PPARγ was “interacted with PPARγ”. The “binding of PGC-1 to RXRα” value in assay [1] is given as “little or no binding”. Moreover, the “mRNA for ATP synthetase” value in the assay with 3T3-F442A preadipocytes (cells expressing PGC-1 vs control) is on record as “increased”. In addition, the “mRNA for UCP-1” value in the assay with 3T3-F442A preadipocytes (cells expressing PGC-1 vs control 3T3-F442A cells, 8-bromo-cAMP and 9-cis-retinoic acid, 6 hr) is listed as “significantly induced”. Besides, the “mitochondrial DNA content compared to control cells” value in the assay on 3T3-F442A cells is reported as “twice”.
